According to the NIST ThermoML archive (doi:10.1016/j.jct.2011.02.018):
± gives the expanded uncertainty stated by the source.

Experiment: xn = mol fraction of the nth substance listed
Details: 101 kPa, Liquid; for viscosity: Concentric cylinders viscometry; for mass density: Vibrating tube method

COC(C)(C)C [2-methoxy-2-methylpropane] + CCCO
Details	mass density, 303.15 K [kg/m3]	mass density, 308.15 K [kg/m3]	viscosity, 303.15 K [mPa·s]	viscosity, 308.15 K [mPa·s]
x1 = 0.0126	794.86 ± 0.24	790.76 ± 0.24	1.676 ± 0.069	1.494 ± 0.061
x1 = 0.0219	794.13 ± 0.24	790.02 ± 0.24	1.631 ± 0.067	1.456 ± 0.059
x1 = 0.0298	793.53 ± 0.24	789.4 ± 0.24	1.594 ± 0.065	1.424 ± 0.058
x1 = 0.0403	792.61 ± 0.24	788.45 ± 0.24	1.548 ± 0.063	1.386 ± 0.057
x1 = 0.05	791.93 ± 0.24	787.77 ± 0.24	1.502 ± 0.061	1.347 ± 0.055
x1 = 0.0599	791.21 ± 0.24	787.04 ± 0.24	1.462 ± 0.06	1.309 ± 0.053
x1 = 0.0699	790.47 ± 0.24	786.28 ± 0.24	1.429 ± 0.058	1.276 ± 0.052
x1 = 0.0798	789.92 ± 0.24	785.72 ± 0.24	1.391 ± 0.057	1.252 ± 0.051
x1 = 0.09	788.85 ± 0.24	784.63 ± 0.24	1.338 ± 0.055	1.203 ± 0.049
x1 = 0.1003	788.08 ± 0.24	783.85 ± 0.24	1.301 ± 0.053	1.181 ± 0.048
x1 = 0.1495	784.61 ± 0.24	780.3 ± 0.24	1.151 ± 0.047	1.042 ± 0.043
x1 = 0.1999	780.94 ± 0.24	776.55 ± 0.24	1.016 ± 0.042	0.9225 ± 0.038
x1 = 0.25	777.38 ± 0.24	772.92 ± 0.24	0.9045 ± 0.037	0.8231 ± 0.034
x1 = 0.3003	773.84 ± 0.24	769.32 ± 0.24	0.809 ± 0.033	0.7398 ± 0.03
x1 = 0.35	770.45 ± 0.24	765.85 ± 0.24	0.7291 ± 0.03	0.6694 ± 0.028
x1 = 0.4015	766.99 ± 0.24	762.32 ± 0.24	0.6608 ± 0.027	0.6082 ± 0.025
x1 = 0.4585	763.21 ± 0.24	758.45 ± 0.24	0.5966 ± 0.025	0.5495 ± 0.023
x1 = 0.5002	760.49 ± 0.24	755.68 ± 0.24	0.5568 ± 0.023	0.5119 ± 0.021
x1 = 0.5505	757.3 ± 0.24	752.42 ± 0.24	0.5121 ± 0.021	0.4715 ± 0.019
x1 = 0.5994	754.28 ± 0.24	749.34 ± 0.24	0.4831 ± 0.02	0.4457 ± 0.018
x1 = 0.6475	751.27 ± 0.24	746.28 ± 0.24	0.4499 ± 0.019	0.4153 ± 0.017
x1 = 0.7026	747.92 ± 0.24	742.86 ± 0.24	0.4145 ± 0.017	0.3818 ± 0.016
x1 = 0.7536	744.86 ± 0.24	739.74 ± 0.24	0.3944 ± 0.017	0.3602 ± 0.015
x1 = 0.8033	741.89 ± 0.24	736.72 ± 0.24	0.3655 ± 0.015	0.3345 ± 0.014
x1 = 0.8471	739.24 ± 0.24	734.04 ± 0.24	0.3506 ± 0.015	0.3255 ± 0.014
x1 = 0.9007	736.06 ± 0.24	730.79 ± 0.24	0.3303 ± 0.014	0.308 ± 0.013
x1 = 0.9107	735.41 ± 0.24	730.13 ± 0.24	0.3277 ± 0.014	0.302 ± 0.013
x1 = 0.9185	734.94 ± 0.24	729.65 ± 0.24	0.3317 ± 0.014	0.3014 ± 0.013
x1 = 0.9282	734.37 ± 0.24	729.07 ± 0.24	0.3205 ± 0.014	0.2934 ± 0.013
x1 = 0.94	733.65 ± 0.24	728.34 ± 0.24	0.3153 ± 0.013	0.295 ± 0.013
x1 = 0.9493	733.09 ± 0.24	727.78 ± 0.24	0.3106 ± 0.013	0.2879 ± 0.012
x1 = 0.9599	732.47 ± 0.24	727.15 ± 0.24	0.3102 ± 0.013	0.2939 ± 0.013
x1 = 0.9698	731.91 ± 0.24	726.58 ± 0.24	0.3092 ± 0.013	0.2843 ± 0.012
x1 = 0.9796	731.35 ± 0.24	726.01 ± 0.24	0.3054 ± 0.013	0.2803 ± 0.012
x1 = 0.9882	730.84 ± 0.24	725.49 ± 0.24	0.3046 ± 0.013	0.2819 ± 0.012
